Test results: US20110118314A1, “PIPERIDINE ANALOGS AS GLYCOGEN SYNTHASE ACTIVATORS” (priority 2009, published 2011)

Tested on: glycogen synthase
Experiment: Glycogen Synthase (GS) Assay
Type: biochemical
Conditions: for EC50: compound concentration needed to give 50% maximum activation; for GS SC200: compound concentration needed to stimulate 200% of the enzyme activity
Description: The following tests were carried out in order to determine the activity of the compounds of formula (I).
Twelve μL per well of substrate solution containing glycogen (4.32 mg/mL), 2.67 mM UDP-glucose, 21.6 mM phospho(enol)pyruvate and 2.7 mM NADH in 30 mM glycylglycine, pH 7.3 buffer was added into a polystyrene 384-well assay plate (BD Biosciences).
Compound solutions (8 μL/well) at various concentrations (0-300 μM) were added to the assay plate (columns 5-24). Compound solution contains 30 mM glycylglycine, pH 7.3, 40 mM KCl, 20 mM MgC12, 9.2% DMSO, with (columns 15-24) or without (columns 5-14) 20 mM glucose 6-phosphate.
Enzyme solution (12 μL/well) containing glycogen synthase (16.88 μg/mL), pyruvate kinase (0.27 mg/mL), lactate dehydrogenase (0.27 mg/mL) in 50 mM Tris-HCl, pH 8.0, 27 mM DTT and bovine serum albumin (BSA, 0.2 mg/mL) was added to the assay plate (columns 3-24). As a blank control, enzyme solution without glycogen synthase was added into the top half wells of columns 1-2. To the bottom half wells of columns 1-2 were added a known activator, glucose 6-phosphate (at final concentration 5 mM) in addition to the enzyme solution. The reaction mixture was incubated at room temperature. The assay plate was then read for absorbance at 340 nm on an Envision reader every 3 minutes up to a total of 15 minutes.
The enzyme activity (with or without compound) was calculated by the reaction rate and represented by the optical density change (SOD) per minute. Percent stimulation of glycogen synthase activity by a compound at various concentrations was calculated by the following formula: […]
where Rs is the reaction rate of the enzyme in the presence of compound and Rt is the reaction rate of the enzyme in the absence of compound.
SC200 is defined as the compound concentration that is needed to stimulate 200% of the enzyme activity. EC50 is defined as the compound concentration that is needed to give 50% maximum activation.
Compounds from Example 1 through Example 36 were assayed according to assay procedures described above and the results are listed in Table 1 below: […]

Row | SMILES | EC50 | GS SC200
1 | COc1cc(F)c(F)cc1-c1ccc(OCC2CCN(C(=O)N(CCC(=O)O)Cc3ccccc3)C2)cc1 (stereo not shown) [Example 29, 3-{Benzyl-[3-(4′,5′-difluoro-2′-methoxy-biphenyl-4-yloxymethyl)-pyrrolidine-1-carbonyl]-amino}-propionic acid] | 10400 nM | 2.55 µM
2 | COc1cc(F)c(F)cc1-c1ccc(OCC2CCCN(C(=O)N(C)Cc3nnn[nH]3)C2)cc1 (stereo not shown) [Example 30, 3-(4′,5′-Difluoro-2′-methoxy-biphenyl-4-yloxymethyl)-piperidine-1-carboxylic acid methyl-(1H-tetrazol-5-ylmethyl)-amide] | 8290 nM | 1.38 µM
3 | COc1cc(F)c(F)cc1-c1ccc(OCC2CCCN(C(=O)N(C)CC(=O)NS(C)(=O)=O)C2)cc1 (stereo not shown) [Example 31, 3-(4′,5′-Difluoro-2′-methoxy-biphenyl-4-yloxymethyl)-piperidine-1-carboxylic acid (2-methanesulfonylamino-2-oxo-ethyl)-methyl-amide] | 380 nM | 0.11 µM
4 | COc1cc(F)c(F)cc1-c1ccc(OC[C@H]2CCCN(C(=O)N(C)CC(=O)NS(C)(=O)=O)C2)cc1 [Example 32, (S)-3-(4′,5′-Difluoro-2′-methoxy-biphenyl-4-yloxymethyl)-piperidine-1-carboxylic acid (2-methanesulfonylamino-2-oxo-ethyl)-methyl-amide] | 200 nM | 0.06 µM
5 | COc1cc(F)c(F)cc1-c1ccc(OC[C@@H]2CCCN(C(=O)N(C)CC(=O)NS(C)(=O)=O)C2)cc1 [Example 33, (R)-3-(4′,5′-Difluoro-2′-methoxy-biphenyl-4-yloxymethyl)-piperidine-1-carboxylic acid (2-methanesulfonylamino-2-oxo-ethyl)-methyl-amide] | 2030 nM | 0.41 µM
6 | COc1cc(F)c(F)cc1-c1ccc(OCC2CCCN(C(=O)N(CC(=O)NS(C)(=O)=O)Cc3ccccc3)C2)cc1 (stereo not shown) [Example 34, 3-(4′,5′-Difluoro-2′-methoxy-biphenyl-4-yloxymethyl)-piperidine-1-carboxylic acid benzyl-(2-methanesulfonylamino-2-oxo-ethyl)-amide] | 520 nM | 0.07 µM
7 | COc1cc(F)c(F)cc1-c1ccc(OCC2CCN(C(=O)N(CC(=O)NS(C)(=O)=O)Cc3ccccc3)C2)cc1 (stereo not shown) [Example 35, 3-(4′,5′-Difluoro-2′-methoxy-biphenyl-4-yloxymethyl)-pyrrolidine-1-carboxylic acid benzyl-(2-methanesulfonylamino-2-oxo-ethyl)-amide] | 820 nM | 0.28 µM
8 | COc1cc(F)c(F)cc1-c1ccc(OCC2CCN(C(=O)N(C)CC(=O)NS(C)(=O)=O)C2)cc1 (stereo not shown) [Example 36, 3-(4′,5′-Difluoro-2′-methoxy-biphenyl-4-yloxymethyl)-pyrrolidine-1-carboxylic acid (2-methanesulfonylamino-2-oxo-ethyl)-methyl-amide] | 7680 nM | 0.8 µM
